According to patent US11040028B2, “Penicinotam derivative, preparation method and use thereof” (OCEAN UNIVERSITY OF CHINA, priority 2017, dated 2021):
Where two headings read alike, the source gives them in different places.

How the values were obtained:
Assay type in all cases: cell-based
[1] = system: human fibrosarcoma cells HT-1080; test: Anti-fibrosis activity test: inhibition of proliferation of human fibrosarcoma cells HT-1080 (CCK-8)
Method in brief: (§1)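 Exponentially growing cells, 2×10^4 cells/mL, attached 24 h. Dosed 48 h across concentrations (n=3). CCK-8 2 h → A450; IR vs blank; IC50.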

BHK-21 cells = test: Anti-fibrosis activity test: inhibition of BHK-21 cell proliferation (CCK-8); settings: Mesocricetus auratus, BHK-21, 48 h
Method in brief: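 Each concentration was tested in triplicate on adhered BHK-21 cells for 48 h, with pirfenidone as reference. A 2 h CCK-8 incubation preceded absorbance reading at 450 nm, and IC50 was obtained from percent inhibition versus blank.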

[2] = system: human hepatic stellate cells LX-2; test: Anti-fibrosis activity test: inhibition of proliferation of human hepatic stellate cells LX-2 (CCK-8); settings: Homo sapiens, 48 h
Method in brief: as §1

[3] = system: human embryonic lung fibroblast IMR-90; test: Anti-fibrosis activity test: inhibition of proliferation of human embryonic lung fibroblast IMR-90 (CCK-8)
Method in brief: as §1

[4] = system: human lung fibroblasts HFL1; test: Anti-fibrosis activity test: inhibition of proliferation of human lung fibroblasts HFL1 (CCK-8); settings: Homo sapiens, HFL1, 48 h
Method in brief: as §1

[5] = system: mouse macrophages (RAW264.7); test: Lipopolysaccharide-induced NO secretion in macrophages (Griess); settings: RAW264.7, LPS 1 μg/ml, a/b isomers given as first/second symbol, read-out: IC50 (μM), inhibition of lipopolysaccharide-induced NO secretion in macrophages
Procedure: The effects of the compounds of the present application on the lipopolysaccharide-induced NO secretion in macrophage was tested Principle: Anti-inflammatory drug activity screening is to detect the inhibitory effect of compounds on NO production in the mouse macrophages (RAW264.7). When immune cells are stimulated by microbial endotoxin, inflammatory mediators, etc., a large amount of induced NO synthase (iNOS) is produced, and thus NO is generated for immune response. Accordingly, the inhibition of NO production can serve as a direct indicator of the anti-inflammatory activity of the compound. The activity of the compound to inhibit NO production at the cellular level is directly evaluated in the abovementioned test model, thereby reflecting the anti-inflammatory activity of the compound. In this experiment, the content of NO in the medium was detected by Gris kit (Molecular probes, G-7921). Macrophages (Raw264.7) were cultured in DMEM medium containing 10% fetal bovine serum, with the cell concentration adjusted. The cells were seeded in 24-well cell culture plates, cultured in an incubator, and the test samples in different concentrations were added every other day. The blank medium was used as a blank control, and commercially available indomethacin and resveratrol were employed as positive controls. After the addition of lipopolysaccharide (LPS, 1 μg/ml), incubation was performed for 24 hours. Then the supernatant culture solution was taken, to […] reagent was added, and the absorbance value was measured by a microplate reader at 548 nm. Inhibition rate=([…])×100%.

[6] = system: cardiac fibroblast RAT-iCell-C002; test: Anti-fibrosis activity test: inhibition of proliferation of cardiac fibroblast RAT-iCell-C002 (CCK-8); settings: Cardiac fibroblast, 48 h
Method in brief: as §1

[7] = system: human dermal fibroblasts CCC-ESF-1; test: Anti-fibrosis activity test: inhibition of proliferation of human dermal fibroblasts CCC-ESF-1 (CCK-8); settings: Fibroblast
Method in brief: as §1

[8] = Homo sapiens, HT-1080, 48 h, human fibrosarcoma cells HT-1080, CCK-8, 48 hours
[9] = CCK-8, 48 hours after administration
[10] = human hepatic stellate cells LX-2, CCK-8, 48 hours
[11] = human embryonic lung fibroblast IMR-90, CCK-8, 48 hours
[12] = human lung fibroblasts HFL1, CCK-8, 48 hours
[13] = cardiac fibroblast RAT-iCell-C002, CCK-8, 48 hours
[14] = human dermal fibroblasts CCC-ESF-1, CCK-8, 48 hours
[15] = Homo sapiens, HT-1080, 48 h, HT-1080 cells, 48 h, CCK-8
[16] = Homo sapiens, IMR-90 cells, 48 h, CCK-8
[17] = Homo sapiens, CCC-ESF-1 cells, 48 h, CCK-8

Row | Compound | IC50 [1, 8] | IC50 ([5]; Mus musculus, RAW264.7, 24 h) | IC50 ([1]; human fibrosarcoma cells HT-1080, CCK-8, 48 hours) | IC50 ([5]; 24 hours) | IC50 [1, 15] | IC50 (BHK-21 cells; [9]) | IC50 [2, 10] | IC50 [3, 11] | IC50 [4, 12] | IC50 [6, 13] | IC50 [7, 14] | IC50 (BHK-21 cells; 48 h, CCK-8) | IC50 ([2]; LX-2, 48 h, LX-2 cells, CCK-8) | IC50 [3, 16] | IC50 ([4]; HFL1 cells, 48 h, CCK-8) | IC50 ([6]; RAT-iCell-C002 cells, CCK-8) | IC50 [7, 17]
1 | O=C(Oc1c2c(nc3cc(N4CCNCC4)c(F)cc13)-c1cccn1C2=O)c1ccco1 [Compound 343b, 7-fluoro-10-oxo-6-(piperazin-1-yl)-10H-pyrrolizino[1,2-b]quinolin-9-ylfuran-2-carboxylate] | 0.05 to 5 mM | 1 to 10 µM |  |  |  | 0.05 to 5 mM | 0.05 to 5 mM | 0.05 to 5 mM | 0.05 to 5 mM | 0.05 to 5 mM | 0.05 to 5 mM |  |  |  |  |  | 
2 | N#Cc1c(N2CCNCC2)ccc2c(=O)c3c(n(Cc4ccc(F)cc4)c12)-c1cccn1C3=O [Compound 482a, 4-(4-Fluorobenzyl)-9,10-dioxo-6-(piperazin-1-yl)-4,10-dihydro-9H-pyrrolizino[1,2-b]quinoline-5-carbonitrile] |  |  | 5 to 20 mM | 10 to 50 µM |  | 0.05 to 5 mM | 0.05 to 5 mM | 0.05 to 5 mM | 0.05 to 5 mM | 0.05 to 5 mM | 0.05 to 5 mM |  |  |  |  |  | 
3 | O=C1c2c(nc3c(Cl)cccc3c2OCc2ccccc2Cl)-c2cccn21 [Compound 461b, 5-chloro-9-((2-chlorobenzyl)oxy)-10H-pyrrolizino[1,2-b]quinolin-10-one] | 0.05 to 5 mM | 1 to 10 µM |  |  |  | 0.05 to 5 mM | 0.05 to 5 mM | 0.05 to 5 mM | 0.05 to 5 mM | 0.05 to 5 mM | 0.05 to 5 mM |  |  |  |  |  | 
4 | O=C1c2nc3ccccc3c(OCCCN3CCNCC3)c2-c2cccn21 [Compound 793b, 11-(3-(piperazin-1-yl)propoxy)-5H-pyrrolizino[2,1-b]quinolin-5-one] |  | 0.1 to 1 µM |  |  | 0.05 to 5 mM |  |  |  |  |  |  | 0.05 to 5 mM | 0.05 to 5 mM | 0.05 to 5 mM | 0.05 to 5 mM | 0.05 to 5 mM | 0.05 to 5 mM
5 | O=C1c2c(c(=O)c3ccccc3n2CCCCN2CCCCC2)-c2cccn21 [Compound 788a, 6-(4-(Piperidin-1-yl)butyl)-5H-pyrrolizino[2,1-b]quinoline-5,11(6H)-dione] |  | 1 to 10 µM |  |  | 0.05 to 5 mM |  |  |  |  |  |  | 0.05 to 5 mM | 0.05 to 5 mM | 0.05 to 5 mM | 0.05 to 5 mM | 0.05 to 5 mM | 0.05 to 5 mM

Second part, led by results:

Row | IC50 [1, 8] | IC50 ([5]; Mus musculus, RAW264.7, 24 h) | IC50 ([1]; human fibrosarcoma cells HT-1080, CCK-8, 48 hours) | IC50 ([5]; 24 hours) | IC50 [1, 15] | Compound | IC50 (BHK-21 cells; [9]) | IC50 [2, 10] | IC50 [3, 11] | IC50 [4, 12] | IC50 [6, 13] | IC50 [7, 14] | IC50 (BHK-21 cells; 48 h, CCK-8) | IC50 ([2]; LX-2, 48 h, LX-2 cells, CCK-8) | IC50 [3, 16] | IC50 ([4]; HFL1 cells, 48 h, CCK-8) | IC50 ([6]; RAT-iCell-C002 cells, CCK-8) | IC50 [7, 17]
6 |  | 10 to 50 µM |  |  | 0.05 to 5 mM | Cc1cc(C)c2c(=O)c3c([nH]c2c1)C(=O)n1cccc1-3 [Compound 782a, 8,10-Dimethyl-5H-pyrrolizino[2,1-b]quinoline-5,11(6H)-dione] |  |  |  |  |  |  | 0.05 to 5 mM | 0.05 to 5 mM | 0.05 to 5 mM | 0.05 to 5 mM | 0.05 to 5 mM | 0.05 to 5 mM
7 |  | 1 to 10 µM |  |  | 0.05 to 5 mM | Cc1ccc2c(O)c3c(nc2c1)C(=O)n1cccc1-3 [Compound 778b, 11-hydroxy-8-methyl-5H-pyrrolizino[2,1-b]quinolin-5-one] |  |  |  |  |  |  | 0.05 to 5 mM | 0.05 to 5 mM | 0.05 to 5 mM | 0.05 to 5 mM | 0.05 to 5 mM | 0.05 to 5 mM
8 |  | 1 to 10 µM |  |  | 0.05 to 5 mM | CCCOCCn1c2c(c(=O)c3ccccc31)-c1cccn1C2=O [Compound 790a, 6-(2-Propoxyethyl)-5H-pyrrolizino[2,1-b]quinoline-5,11(6H)-dione] |  |  |  |  |  |  | 0.05 to 5 mM | 0.05 to 5 mM | 0.05 to 5 mM | 0.05 to 5 mM | 0.05 to 5 mM | 0.05 to 5 mM
9 | 0.05 to 5 mM | 1 to 10 µM |  |  |  | O=C1c2c(n(Cc3cccc(Cl)c3)c3c(C(F)(F)F)cccc3c2=O)-c2cccn21 [Compound 455a, 4-(3-Chlorobenzyl)-5-(trifluoromethyl)-9H-pyrrolizino[1,2-b]quinoline-9,10(4H)-dione] | 0.05 to 5 mM | 0.05 to 5 mM | 5 to 20 mM | 5 to 20 mM | 0.05 to 5 mM | 0.05 to 5 mM |  |  |  |  |  | 
10 | 0.05 to 5 mM | 1 to 10 µM |  |  |  | O=C(O)COc1c2c(nc3ccc(F)cc13)-c1cccn1C2=O [Compound 153b, 2-((7-fluoro-10-oxo-10H-pyrrolizino[1,2-b]quinolin-9-yl)oxy)acetic acid] | 0.05 to 5 mM | 0.05 to 5 mM | 0.05 to 5 mM | 0.05 to 5 mM | 0.05 to 5 mM | 0.05 to 5 mM |  |  |  |  |  | 
